The target of the assay is T1, Putative FAD-containing monooxygenase MymA (Mycobacterium tuberculosis (strain ATCC 25618 / H37Rv), UniProt P9WNF7).
T1 sequence (P9WNF7 whole entry): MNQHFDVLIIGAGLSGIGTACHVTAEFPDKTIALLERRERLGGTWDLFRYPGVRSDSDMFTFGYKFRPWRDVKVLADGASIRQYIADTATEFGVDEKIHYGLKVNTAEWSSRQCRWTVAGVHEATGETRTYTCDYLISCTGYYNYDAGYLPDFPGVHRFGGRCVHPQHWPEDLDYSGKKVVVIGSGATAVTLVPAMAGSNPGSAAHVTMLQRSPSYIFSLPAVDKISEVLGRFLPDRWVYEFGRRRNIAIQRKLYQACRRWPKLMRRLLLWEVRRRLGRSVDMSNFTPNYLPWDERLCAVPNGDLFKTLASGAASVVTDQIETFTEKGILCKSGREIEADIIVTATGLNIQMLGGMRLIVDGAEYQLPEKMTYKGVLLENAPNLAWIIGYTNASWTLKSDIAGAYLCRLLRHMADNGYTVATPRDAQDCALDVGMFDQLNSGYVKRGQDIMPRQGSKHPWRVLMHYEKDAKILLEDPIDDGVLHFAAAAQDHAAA
Kind of assay: MymA Inhibition Assay. How it is done: Inhibition of MymA activity by INH was checked using different concentrations (0-12 um) of INH, 100 um of trimeth-ylamine and 5 mg of MymA along with the other components in the enzyme assay as described above.

`NNC(=O)c1ccncc1` [4-pyridinecarbohydrazide(Isoniazid)]: the IC50 (usually the concentration needed to halve the response being measured) worked out at 4.9 µM.

These data come from BindingDB's records for doi:10.1111/cbdd.12840 (Miranda House, 2017).
